From PMC5114727, “Biological characterization of chemically diverse compounds targeting the Plasmodium falciparum coenzyme A synthesis pathway” (Parasites & Vectors, 2016)
Values joined by “and” are separate entries in the source; they are usually repeats but may differ in a detail not shown here. Equal entries are not always repeated. Where two headings read alike, the source gives them in different places.

What was measured:
T. cruzi amastigotes = assay: T. cruzi amastigote image-based assay in 3T3 host cells; format: cell-based, Trypanosoma cruzi; details: for IC50: in 3T3 host cells, read-out: T. cruzi amastigote IC50 ± SEM; for T. cruzi amastigote percent inhibition at the highest concentration tested: 40 µM per footnote, given if an IC50 could not be calculated
Description: The next step taken was to determine whether the activity of the compounds was confined to P. falciparum, or whether it extended to other protozoan parasites. Compound activity against two members of another clinically important group of parasites, the kinetoplastids T. cruzi and T. b. brucei was determined. The sensitive high content imaging assay used to determine compound activity against T. cruzi assesses the intracellular amastigote life form of the parasite in the 3T3 host cell. It is important to simultaneously assess compound activity against 3T3 cells to determine potential cytotoxicity against the host cell line, since this could result in a false positive outcome. The T. b. brucei assay employs the REDOX indicator Alamar Blue to assess viability, which was developed into a 384-well assay format.
Compound activity against T. cruzi amastigotes was assessed in an image-based assay in single point concentration-response and three biological replicates, at a final highest compound concentration of […], as previously described.

[1] = molecular target: early stage gametocytes (stage I to IIb/III) of P. falciparum line NF54^Pfs16; assay: Gametocyte luciferase assay, early stage; format: cell-based, Plasmodium falciparum
Description: (§1) To investigate a potential role of CoA biosynthesis for host to vector transmission of the malaria parasite, we investigated the activity of our compounds on P. falciparum gametocytes, the sexual stages of P. falciparum, essential for malaria transmission. […] Parasite stage-specificity and gametocytocidal activity of the compounds was therefore investigated, utilizing a luciferase-based approach on early stage (development from stage I to IIb/III [30]) and late stage (IV to V [51]) gametocytes.
(§2) Induction of P. falciparum gametocyte differentiation and gametocyte culturing were performed as previously described. Compound activity against early stage gametocytes (covering the development from stage I to IIb/III) and late stage gametocytes (stage IV to V) of the recombinant P. falciparum line NF54^Pfs16 was assessed in concentration-response assays, in two experimental replicates consisting of two technical repeats each, at a highest concentration of 40 μM, as described earlier.

[2] = molecular target: late stage gametocytes (stage IV to V) of P. falciparum line NF54^Pfs16; assay: Gametocyte luciferase assay, late stage; format: cell-based, Plasmodium falciparum
Description: as §1, §2

PC-3 cells = assay: Resazurin cytotoxicity assay, PC-3; format: cell-based, human; details: highest concentration 40 μM; bound = highest concentration with < 50 % inhibition; read-out: PC-3 cytotoxicity IC50 ± SEM
Description: An initial indication of compound selectivity over human cells had previously been obtained through comparison of the compounds’ IC50 values against P. falciparum asexual stages and HEK293 [22]. In the present study, the selectivity investigation was extended to a small panel of human cancer cell lines, namely the estrogen receptor (ER)-positive breast cancer cell line MCF7, the ER-negative MDA-MB-231, as well as the human prostate cancer line, PC-3. Additionally, the cytotoxic effects on mouse embryonic fibroblast cell line 3T3, which serves as the host cell for T. cruzi in our image-based amastigote assay, were investigated.
Cytotoxicity of the compounds was assessed against a panel of human cancer cell lines, namely the estrogen receptor (ER)-positive breast cancer cell line MCF7, the ER-negative MDA-MB-231 and the prostate cancer line PC-3. All the cell lines were purchased from ATCC and maintained as previously described. Two biological replicates consisting of two technical replicates each were performed to generate concentration response curves (CRC) with a final highest concentration of 40 μM. A resazurin-based assay was utilized to determine cell viability as described earlier. Additionally, the cytotoxic effects on the mouse embryonic fibroblast cell line 3T3 were assessed as part of the Trypanosoma cruzi amastigote image-based assay as outlined in [35].

[3] = test system: P. falciparum asexual blood stages (PfAS); assay: Chemical rescue with CoA pathway intermediates, asexual stages; format: cell-based, Plasmodium falciparum; details: inhibitor at IC80; for Percent rescue ± SEM by CoA, PfAS: CoA 0.8 mM; for Percent rescue ± SEM by dephospho CoA, PfAS: dP-CoA 0.8 mM; for Percent rescue ± SEM by pantethine, PfAS: pantethine 125 μM; for Percent rescue ± SEM by pantothenate, PfAS: pantothenate 300 μM
Description: (§3) Pantothenate is the first substrate of the pathway (Fig. 1) and its addition was intended to rescue the action of possible competitive inhibitors of the first enzyme, PanK. […] It is not known, whether P. falciparum is capable of pantetheine phosphorylation for utilization in CoA synthesis. […] Finally, the rescue ability of dP-CoA, the final substrate of CoA synthesis, was tested. […] Inhibitors competing with dP-CoA for DPCK binding were expected to be displaced, thereby rescuing parasite survival, by dP-CoA supplementation in a concentration dependent manner.
(§4) An imaging based assay was utilised to assess the chemical rescue on asexual stages of P. falciparum as described previously. All the pathway intermediates were purchased from Sigma. CoA and dP-CoA were dissolved in sterile distilled water to obtain a 20 mM stock solution, which was then aliquoted and stored at -20 °C until use. […] Each pathway intermediate was tested on the parasites at a range of concentrations to assess potential toxicity. […] On early stage P. falciparum gametocytes the same concentrations as for CoA were tested for dP-CoA; against asexual blood stage P. falciparum, late stage gametocytes and Trypanosoma b. brucei five dP-CoA concentrations were tested (2 mM, 1.5 mM, 1 mM, 0.75 mM and 0.5 mM).
(§5) The same concentration ranges of the CoA pathway intermediates were supplemented to parasites treated with the experimental compounds. The inhibitors were used at their respective final assay concentration of IC80 (as determined previously in the corresponding P. falciparum development stage or T. b. brucei assay). […] The negative control used in each assay was 0.4% DMSO, whilst the positive control was 2 μM artemisinin for asexual P. falciparum blood stages and 5 μM puromycin for all gametocyte stages and T. b. brucei. The percentage growth of the respective parasites following compound treatment was determined using Microsoft ® Excel 2010, and compared with their controls. All rescue assays were performed as two independent experiments each in duplicate point.

[4] = test system: P. falciparum late stage gametocytes (PfLG, stages IV-V); assay: Chemical rescue with CoA pathway intermediates, late stage gametocytes; format: cell-based, Plasmodium falciparum; details: inhibitor at IC80; for Percent rescue ± SEM by pantethine, PfLG: pantethine 5 mM; for Percent rescue ± SEM by pantothenate, PfLG: pantothenate 312.5 μM; for Percent rescue ± SEM by CoA, PfLG: CoA 1.8 mM; for Percent rescue ± SEM by dephospho CoA, PfLG: dP-CoA 2 mM
Description: as §3, §4, §5

[5] = test system: P. falciparum asexual blood stage; details: as previously reported; read-out: Asexual P. falciparum IC50 ± SEM; cited from earlier work
[6] = test system: P. falciparum early stage gametocytes (PfEG, stage I-III); assay: Chemical rescue with CoA pathway intermediates, early stage gametocytes; format: cell-based, Plasmodium falciparum; details: for Percent rescue ± SEM by CoA, PfEG: CoA 1.6 mM; for Percent rescue ± SEM by CoA, PfEG / Percent rescue ± SEM by pantethine, PfEG / Percent rescue ± SEM by pantothenate, PfEG: inhibitor at IC80; for Percent rescue ± SEM by pantethine, PfEG: pantethine 10 mM; for Percent rescue ± SEM by pantothenate, PfEG: pantothenate 625 μM
Description: as §3, §4
as §5, with “compounds.” for “compounds. The inhibitors were used at their respective final assay concentration of IC80 (as determined previously in the corresponding P. falciparum development stage or T. b. brucei assay).”

[7] = highest concentration 40 μM, read-out: Early stage gametocyte IC50 ± SEM
[8] = highest concentration 40 μM, read-out: Late stage gametocyte IC50 ± SEM
[9] = read-out: Early stage gametocyte IC50
[10] = read-out: Late stage gametocyte IC50

SMILES | IC50 (T. cruzi amastigotes) [µM] | IC50 [1, 7] [µM] | IC50 [2, 8] | IC50 (PC-3 cells) [µM] | Percent rescue ± SEM by CoA, PfAS [3] [%] | Percent rescue ± SEM by dephospho CoA, PfAS [3] [%] | Percent rescue ± SEM by pantethine, PfAS [3] | Percent rescue ± SEM by pantothenate, PfAS [3] | Percent rescue ± SEM by pantethine, PfLG [4] | Percent rescue ± SEM by pantothenate, PfLG [4] | IC50 [5] [µM] | T. cruzi amastigote percent inhibition at the highest concentration tested (T. cruzi amastigotes) [%] | IC50 [1, 9] [µM] | IC50 [2, 10] [µM] | Percent rescue ± SEM by CoA, PfEG [6] | Percent rescue ± SEM by pantethine, PfEG [6] | Percent rescue ± SEM by pantothenate, PfEG [6] | also measured
CC(=O)C1=C(c2ccccc2)C(=O)c2ccccc2C1=O [Amb4317088] | 4.3 ± 0.27 | 2.88 ± 0.18 | 2.24 µM and 2.2 µM | 1.4 ± 0.06 | 84.5 ± 7.7 | 77.6 ± 5.5 | No | No | No | No | 1.23 ± 0.06 |  |  |  |  |  |  | 
CC1=CC(=O)C(C(C)C)=C/C1=N/OS(=O)(=O)c1ccccc1 [STK 740987] |  |  |  | > 20 | 103.9 ± 3.4 | 88.9 ± 6.7 | No | No | No | No | 0.38 ± 0.06 | 54 | 0.43 | 0.46 | 24.1 ±0.7% and 24 ± 1% | No and not rescued by the other intermediates | No and not rescued by the other intermediates | activity on early stage gametocytes at previously determined IC80 value ([6]; compound alone in rescue experiment): > 95%; Percent rescue by CoA, PfEG, at the compound's IC50 ([6]; inhibitor at IC50): 61.5 ± 1.0% and 62 ± 1%; Percent rescue by dephospho CoA, PfEG, at the compound's IC50 ([6]; inhibitor at IC50): 46.2 ± 2.4% and 46 ± 2%; Rescue by pantethine, PfEG, at the compound's IC50 (in words) ([6]; inhibitor at IC50): unaffected; Rescue by pantothenate, PfEG, at the compound's IC50 (in words) ([6]; inhibitor at IC50): unaffected; Percent rescue ± SEM by CoA, PfLG [4]: 53.1 ± 0.5%; Percent rescue ± SEM by CoA, PfLG ([4]; listed as STK740987): approximately 50%; Percent rescue ± SEM by dephospho CoA, PfLG [4]: 50.3 ± 0.8%; Percent rescue ± SEM by dephospho CoA, PfLG ([4]; listed as STK740987): approximately 50%
Cc1csc(Sc2ncnc3sccc23)n1 [Amb180780] |  |  |  | > 40 |  |  | 76.2 ± 7.7% and 76 ± 8% | No and not by pantothenate | No | No | 0.12 ± 0.02 | 21 | 0.06 | 0.07 | 111.3 ± 3.2% and ~100% | 94.2 ± 1.8% and ~100% | No | 
CC(=O)c1ccc2c3c(onc13)-c1ccccc1C2=O [Amb3377585] | 13.3 ± 2.35 | 0.25 ± 0.01 | 6.22 ± 2.5 µM | 5.5 ± 0.64 | 89.3 ± 2.6 | 38.7 ± 4.7 | No | No |  |  | 0.15 ± 0.01 |  |  |  |  | No | No | 
